Columns and labels:
[1] = target: T1, XIAP (Homo sapiens, UniProt P98170); experiment: Fluorescence polarization-based competition assay, XIAP; assay type: binding; details: FP assay, ki derived from IC50
T1 construct: fused on or other part: GST tag at the N-terminus (pGEX4T vectors)
Experimental: (§1) Binding of compounds of Formula 1 to target BIR domains was measured using a fluorescence-polarization (FP) assay. Fluorescence-polarization was evaluated using a GENios microplate reader (TECAN) Pro instrument with the excitation filter set at 485 nm and the emission filter set at 535 nm. The final amount of protein used in the assay corresponds to the amount of protein necessary to obtain 80% of the maximum FP value in a P1 or P2 fluorescent (FITC) probe saturation experiment. The compounds potency (IC50) and selectivity, was assessed in the presence of the amount of target protein established, fluorescent probe, and a 10 point serial dilution in assay buffer (50 mM Hepes, pH 7.5, 250 mcg/mL γ-globulin, 2 mM DTT, 1% DMSO) of the selected compounds.
(§2) Assays were carried out in duplicate using untreated black 96-well plates (Corning #3915) and a total volume of 100 microliters, containing 25 microliters of fluorescent probe at a final concentration of 2 nM in assay buffer, 25 microliters of diluted compound, 25 microliters of BIR protein into assay buffer and 25 microliters of assay buffer. Buffer only (blank) or probe only in buffer (G-factor) were used as controls for calibration. The plate was incubated at room temperature in the dark for one hour and FP values in millipolarization units (mP) were recorded using Genios Pro FP reader.
(§3) The measured FP values (mP) were then plotted against compound concentration, and IC50 values were calculated based on a sigmoidal dose-response (variable-slope) curve fit using GraphPad Prism version 4.02 for Windows, GraphPad Software, San Diego Calif. USA and/or CambridgeSoft BioAssay Enterprise Version 10.1. The IC50 value is the concentration of test compound at which 50% of the tracer was displaced. ki values were derived from the calculated IC50 values as described above and according to the equation described in Nikolovska-Coleska, Z. (2004) Anal Biochem 332, 261-273. The results are presented in Table 2, wherein A=less than 25 nM; B=less than 250 nM; C=less than 1000 nM; and D=greater than 1000 nM.

[2] = target: T2, cIAP2 (Homo sapiens, UniProt Q13489); experiment: Fluorescence polarization-based competition assay, cIAP2; assay type: binding; details: FP assay, ki derived from IC50
T2 construct: GST (N); made in house; host or cells: E. coli DH5α
T2 sequence (Q13489 236-349): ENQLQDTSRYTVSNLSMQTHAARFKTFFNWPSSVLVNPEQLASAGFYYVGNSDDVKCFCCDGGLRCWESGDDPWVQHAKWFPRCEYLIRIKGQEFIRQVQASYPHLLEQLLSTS
Experimental: as §1, §2, §3

[3] = target: T3, c-IAP1 (Homo sapiens, UniProt Q13490); experiment: Fluorescence polarization-based competition assay, c-IAP1; assay type: binding; details: FP assay, ki derived from IC50
T3 construct: GST (N); made in house; host or cells: E. coli DH5α
T3 sequence (Q13490 251-363): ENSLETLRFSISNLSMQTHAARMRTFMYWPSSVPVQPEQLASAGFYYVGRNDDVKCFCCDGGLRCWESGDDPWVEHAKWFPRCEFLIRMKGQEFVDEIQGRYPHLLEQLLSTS
Experimental: as §1, §2, §3

[4] = test system: Colorectal carcinoma HCT116 cells; experiment: Cell death assay (MTT) in combination with HGS ETR1; assay type: cell-based; details: with HGS ETR1 30 ng/ml, 72 hours, read-out: HCT116+ mapatubimap EC50
Experimental: Colorectal carcinoma HCT116 cells were cultured as monolayers in 96 well plates at a density of 2000 cells per well in McCoy's 5a medium (HyClone) supplemented with 2.2 g/L sodium bicarbonate, 10% FBS (HyClone) and 1% penicillin/streptomycin (HyClone). 24 hours later, triplicate wells were treated with HGS ETR1 (30 ng/ml) in combination with compound. Cells were incubated in the presence of compound and HGS agonistic Trail receptor antibody, ETR1 (Mapatumamab, 30 ng/ml) for 72 hours. Metabolic viability of remaining cells was assessed by MTT (thiazolyl blue tetrazolium bromide, Sigma) assay.
EC50 values (50% cell survival in the presence of compound as compared to untreated controls) were calculated from survival curves using BioAssay software (CambridgeSoft) and GraphPad Prism (Graph Pad Software Inc.). The results are provided in Table 3, below, wherein A=less than 50 nM; B=less than 250 nM; C=less than 1000 nM; and D=greater than 1000 nM.

T1 sequence (P98170 246-497 limits assumed): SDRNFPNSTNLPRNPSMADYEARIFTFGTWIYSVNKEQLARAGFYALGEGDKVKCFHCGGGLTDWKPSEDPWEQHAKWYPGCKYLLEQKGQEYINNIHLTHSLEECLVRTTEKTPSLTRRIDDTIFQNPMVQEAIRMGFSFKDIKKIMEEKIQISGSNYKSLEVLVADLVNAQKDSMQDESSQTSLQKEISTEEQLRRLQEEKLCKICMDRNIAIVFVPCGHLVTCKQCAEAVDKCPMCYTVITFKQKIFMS

SMILES | Ki [1] [nM] | Ki [2] [nM] | Ki [3] [nM] | EC50 [4] [nM]
CN[C@@H](C)C(=O)N[C@H](C(=O)N1C[C@@H](Oc2ccc(F)cc2)C[C@H]1CN(CCc1ccc(F)cc1)C(=O)c1cn(C)cn1)C(C)(C)C [Compound 82] | < 25 | < 25 | < 25 | < 50
CN[C@@H](C)C(=O)N[C@H](C(=O)N1CCC[C@H]1CN(CCc1ccc(F)cc1)C(=O)c1cn2ccccc2n1)C1CCCCC1 [Compound 18] | < 250 | < 25 | < 25 | < 50
CN[C@@H](C)C(=O)N[C@H](C(=O)N1C[C@@H](Oc2ccc(F)cc2)C[C@H]1CN(CCc1ccc(F)cc1)C(=O)c1cn2c(n1)CCC2)C(C)(C)C [Compound 83] | < 25 | < 25 | < 25 | < 50
CN[C@@H](C)C(=O)N[C@H](C(=O)N1C[C@@H](NS(=O)(=O)c2ccccc2)C[C@H]1CN(CCc1ccc(F)cc1)C(=O)c1cn2cccnc2n1)C(C)(C)C [Compound 59] | < 250 | < 25 | < 25 | < 1000
CN[C@@H](C)C(=O)N[C@H](C(=O)N1CCC[C@H]1CN(CCc1ccc(F)cc1)C(=O)c1cn(-c2ccccc2)cn1)C(C)(C)C [Compound 61] | < 250 | < 25 | < 25 | < 250
CN[C@@H](C)C(=O)N[C@H](C(=O)N1CCC[C@H]1CN(CCc1ccc(F)cc1)C(=O)c1nnc(-c2ccccc2)o1)C(C)(C)C [Compound 117] | < 1000 | < 25 | < 25 | < 250
CN[C@@H](C)C(=O)N[C@H](C(=O)N1CCC[C@H]1CN(CCc1ccc(F)cc1)C(=O)c1cn2ccccc2n1)C(C)(C)C [Compound 17] | < 250 | < 25 | < 25 | < 50
CN[C@@H](C)C(=O)N[C@H](C(=O)N1CCC[C@H]1CN(CCc1ccc(F)cc1)C(=O)c1cn(-c2ccccc2)nn1)[C@@H](C)OC [Compound 77] | < 250 | < 25 | < 25 | < 50
CN[C@@H](C)C(=O)N[C@H](C(=O)N1CCC[C@H]1CN(CCc1ccc(F)cc1)C(=O)c1cn(C2CCCC2)cn1)C(C)(C)C [Compound 91] | < 250 | < 25 | < 25 | < 50
CN[C@@H](C)C(=O)N[C@H](C(=O)N1CCC[C@H]1CN(CCc1ccc(F)cc1)C(=O)c1cn(-c2ccc(F)cc2)cn1)C(C)(C)C [Compound 66] | < 250 | < 25 | < 25 | < 50
CN[C@@H](C)C(=O)N[C@H](C(=O)N1C[C@@H](NC(=O)c2ccccc2)C[C@H]1CN(CCc1ccc(F)cc1)C(=O)c1cn2cccnc2n1)C(C)(C)C [Compound 49] | < 1000 | < 25 | < 25 | < 250
CN[C@@H](C)C(=O)N[C@H](C(=O)N1CCC[C@H]1CN(CCc1ccc(F)cc1)C(=O)c1ccn(-c2ccccc2)c1)C(C)(C)C [Compound 122] | < 250 | < 25 | < 25 | < 250
CCO[C@H](C)[C@H](NC(=O)[C@H](C)NC)C(=O)N1CCC[C@H]1CN(CCc1ccc(F)cc1)C(=O)c1cn(-c2ccc(F)cc2)cn1 [Compound 79] | < 250 | < 25 | < 25 | < 50
CN[C@@H](C)C(=O)N[C@H](C(=O)N1C[C@@H](Oc2ccc(F)cc2)C[C@H]1CN(CCc1ccc(F)cc1)C(=O)c1cn(-c2ccc(F)cc2)cn1)[C@@H](C)OC [Compound 108] | < 250 | < 25 | < 25 | < 250
CN[C@@H](C)C(=O)N[C@H](C(=O)N1CCC[C@H]1CN(CCc1ccc(F)cc1)C(=O)c1cn(C2CCOCC2)cn1)C(C)(C)C [Compound 95] | < 250 | < 25 | < 25 | < 50
CN[C@@H](C)C(=O)N[C@H](C(=O)N1C[C@@H](Oc2ccncc2)C[C@H]1CN(CCc1ccc(F)cc1)C(=O)c1cn2ccccc2n1)C(C)(C)C [Compound 106] | < 250 | < 25 | < 25 | < 50
CN[C@@H](C)C(=O)N[C@H](C(=O)N1CCC[C@H]1CN(CCc1ccc(F)cc1)C(=O)c1cn2cc(F)cnc2n1)C1CCCCC1 [Compound 103] | < 250 | < 25 | < 25 | < 50
CCO[C@H](C)[C@H](NC(=O)[C@H](C)NC)C(=O)N1CCC[C@H]1CN(CCc1ccc(F)cc1)C(=O)c1cn2ccccc2n1 [Compound 78] | < 250 | < 25 | < 25 | < 50
CCN[C@@H](C)C(=O)N[C@H](C(=O)N1CCC[C@H]1CN(CCc1ccccc1)C(=O)c1cn2cccnc2n1)C1CCOCC1 [Compound 4] | < 1000 | < 250 | < 250 | > 1000
CN[C@@H](C)C(=O)N[C@H](C(=O)N1CCC[C@H]1CN(CCc1ccc(F)cc1)C(=O)c1cn2ccccc2n1)[C@@H](C)OC [Compound 58] | < 250 | < 25 | < 25 | < 50
CN[C@@H](C)C(=O)N[C@H](C(=O)N1CCC[C@H]1CN(CCc1ccc(F)cc1)C(=O)c1nccn1C)[C@@H](C)OC [Compound 85] | < 1000 | < 25 | < 25 | < 50
CN[C@@H](C)C(=O)N[C@H](C(=O)N1CCC[C@H]1CN(CCc1ccc(F)cc1)C(=O)c1cnn(-c2ccccc2)c1)C(C)(C)C [Compound 90] | < 250 | < 25 | < 25 | < 250
CN[C@@H](C)C(=O)N[C@H](C(=O)N1CCC[C@H]1CN(CCc1ccc(F)cc1)C(=O)c1cn(C)nn1)C1CCCCC1 [Compound 110] | < 250 | < 25 | < 25 | < 50
CN[C@@H](C)C(=O)N[C@H](C(=O)N1CCC[C@H]1CN(CCc1ccc(F)cc1)C(=O)c1cncn1C)C(C)(C)C [Compound 92] | < 1000 | < 250 | < 25 | < 250
CN[C@@H](C)C(=O)N[C@H](C(=O)N1C[C@@H](NC(=O)c2ccccc2)C[C@H]1CN(CCc1ccc(F)cc1)C(=O)c1cn(-c2ccc(F)cc2)cn1)C(C)(C)C [Compound 87] | < 250 | < 25 | < 25 | < 250
CN[C@@H](C)C(=O)N[C@H](C(=O)N1C[C@@H](NC(C)=O)C[C@H]1CN(CCc1ccc(F)cc1)C(=O)c1cn2cccnc2n1)C(C)(C)C [Compound 55] | < 250 | < 25 | < 25 | > 1000
CN[C@@H](C)C(=O)N[C@H](C(=O)N1CCC[C@H]1CN(CCc1ccc(F)cc1)C(=O)c1ncc(-c2ccccc2)[nH]1)C(C)(C)C [Compound 109] | < 250 | < 25 | < 25 | < 50
CN[C@@H](C)C(=O)N[C@H](C(=O)N1C[C@@H](NC(C)=O)C[C@H]1CN(CCc1ccc(F)cc1)C(=O)c1cn2ccccc2n1)C(C)(C)C [Compound 70] | < 1000 | < 250 | < 25 | < 1000
CN[C@@H](C)C(=O)N[C@H](C(=O)N1CCC[C@H]1CN(CCc1ccccc1)C(=O)c1cn2cc(F)ccc2n1)C(C)(C)C [Compound 32] | < 250 | < 25 | < 25 | < 250
CN[C@@H](C)C(=O)N[C@H](C(=O)N1C[C@@H](Oc2ccc(F)cc2)C[C@H]1CN(CCc1ccc(F)cc1)C(=O)c1cn2ccccc2n1)C(C)(C)C [Compound 84] | < 25 | < 25 | < 25 | < 50

— patent publication US9284350B2, “IAP BIR domain binding compounds” (Pharmascience Inc., priority 2010, dated 2016)
